{"source": "patent US20100130457A1", "about": "“Phenothiazine Derivatives for Treatment of Asthma” (Immune Control, Inc., priority 2008, published 2010)", "key": {"MPR1-MDCK": {"system": "MPR1-MDCK", "test": "MPR1-MDCK permeability, potential to cross the blood-brain barrier", "format": "in vitro ADME", "details": "for % Recovery A-B / Papp A-B: A-B direction; for % Recovery B-A / Papp B-A: B-A direction; for Efflux: efflux ratio; for Brain Penetration Classification: from A-B Papp and efflux ratio", "text": "A criterion for selecting an agent for proceeding to clinical trials is whether the compound crosses the blood-brain barrier. […] Fluphenazine (ICI-01175) is used as a control compound that has the potential to cross the blood-brain barrier. Table 1 summarizes the results of the test compounds for their potential to cross the blood-brain barrier."}, "human small airway": {"system": "human small airway", "test": "Human precision-cut lung slices (PCLS), small airway contraction", "method": "Human precision-cut lung slices (PCLS) permit evaluation of pharmacological responses of novel drug candidates applied directly to their target tissue.\nHuman precision-cut lung slices (PCLS, 250 μm thick) containing a small airway were contracted to carbachol, histamine and passively sensitization to induce airway closure±pre-incubation with ICI-735 (10 μM; 2 hours); FIG. 13. For example, human lung slices containing a small airway were incubated overnight with either negative control IgG (4 μg/mL) or positive control IgE (4 μg/mL). The slices were tested as follows: 1) IgG+anti-IgE; 2) IgE+anti-IgE; 3) IgE+Dexamethasone (1 μM)+anti-IgE; and 4) IgE+ICI-735 (10 μM) +anti-IgE. Dexamethasone and ICI-735 were pre-incubated 2 hours prior to anti-IgE; anti-IgE is used to crosslink antibodies and induce mast cell degranulation, which is believed to release histamine and cause airway contract. […]\nHuman lung tissue contains multiple cell types, including mast cells, that localize in the region of airway smooth muscle, and that increase in number in individuals with asthma. Cross-linking of Fcε;R1 receptors on surfaces of mast cells leads to release of granules that contain smooth muscle contractile agonists, including histamine and leukotrienes.\nTo test C-027 as a blocker of histamine-induced bronchoconstriction, lung slices were incubated for 2 hours with C-027, and small airway contraction was evaluated after addition of increasing concentrations of histamine."}, "RPMI 8226": {"system": "RPMI 8226", "test": "Inhibition of proliferation of RPMI 8226 cells", "format": "cell-based, human", "details": "RPMI cells in vitro", "text": "The next set of experiments was designed to assess compounds that have low levels of brain penetration for the ability of the test compounds to inhibit cellular proliferation. An exemplary in vitro assay is to screen for the ability of the test compounds to inhibit proliferation of the B-cell neoplastic cell line RPMI 8226 (a plasmacytoma derived from a multiple myeloma patient (Matsuoka, et al., 1967, Proc. Soc. Exp. Biol. Med. 125: 1246-1250). However other cell line can be used such as, U266 (established from an IgE-secreting myeloma patient (Nilsson, et al., 1970, Clin. Exp. Immunol., 7: 477-489) and ARH77 (an EBV transformed plasma cell leukemia (Burk, et al., 1978, Cancer Res. 38: 2508-2513).\nFIG. 1 is a graph depicting the effects on the test compounds on RPMI cell viability."}}}
{"smiles": "FC(F)(F)c1ccc2c(c1)N(CCCN1CCNCC1)c1ccccc1S2", "note": "[ICI-00685]", "values": [{"measurement": "% Recovery A-B", "setting": "MPR1-MDCK", "result": 17, "unit": "%"}, {"measurement": "Papp A-B", "setting": "MPR1-MDCK", "result": 0.66, "unit": "×10⁻⁶ cm/s"}, {"measurement": "% Recovery B-A", "setting": "MPR1-MDCK", "result": 15, "unit": "%"}, {"measurement": "Papp B-A", "setting": "MPR1-MDCK", "result": 4.47, "unit": "×10⁻⁶ cm/s"}, {"measurement": "Efflux", "setting": "MPR1-MDCK", "result": 6.8}, {"measurement": "Brain Penetration Classification", "setting": "MPR1-MDCK", "result": "Low (A-B Papp > 3.0 and Efflux Ratio > 10: Low)"}]}
{"smiles": "NCCCN1CCN(CCCN2c3ccccc3Sc3ccc(C(F)(F)F)cc32)CC1", "note": "[ICI-00760]", "values": [{"measurement": "% Recovery A-B", "setting": "MPR1-MDCK", "result": 46, "unit": "%"}, {"measurement": "Papp A-B", "setting": "MPR1-MDCK", "result": "<0.25", "unit": "×10⁻⁶ cm/s"}, {"measurement": "% Recovery B-A", "setting": "MPR1-MDCK", "result": 40, "unit": "%"}, {"measurement": "Papp B-A", "setting": "MPR1-MDCK", "result": 18.8, "unit": "×10⁻⁶ cm/s"}, {"measurement": "Efflux", "setting": "MPR1-MDCK", "result": ">75"}, {"measurement": "Brain Penetration Classification", "setting": "MPR1-MDCK", "result": "Low (A-B Papp > 3.0 and Efflux Ratio > 10: Low)"}]}
{"smiles": "N#Cc1ccc2c(c1)N(CCCN1CCN(CCN)CC1)c1ccccc1S2", "note": "[ICI-00894]", "values": [{"measurement": "% Recovery A-B", "setting": "MPR1-MDCK", "result": 56, "unit": "%"}, {"measurement": "Papp A-B", "setting": "MPR1-MDCK", "result": 0.22, "unit": "×10⁻⁶ cm/s"}, {"measurement": "% Recovery B-A", "setting": "MPR1-MDCK", "result": 56, "unit": "%"}, {"measurement": "Papp B-A", "setting": "MPR1-MDCK", "result": 30, "unit": "×10⁻⁶ cm/s"}, {"measurement": "Efflux", "setting": "MPR1-MDCK", "result": 136}, {"measurement": "Brain Penetration Classification", "setting": "MPR1-MDCK", "result": "Low (A-B Papp > 3.0 and Efflux Ratio > 10: Low)"}]}
{"smiles": "CN(C)CCN1CCN(CCCN2c3ccccc3Sc3ccc(C(F)(F)F)cc32)CC1", "note": "[ICI-00738]", "values": [{"measurement": "% Recovery A-B", "setting": "MPR1-MDCK", "result": 15, "unit": "%"}, {"measurement": "Papp A-B", "setting": "MPR1-MDCK", "result": 1.06, "unit": "×10⁻⁶ cm/s"}, {"measurement": "% Recovery B-A", "setting": "MPR1-MDCK", "result": 40, "unit": "%"}, {"measurement": "Papp B-A", "setting": "MPR1-MDCK", "result": 3.33, "unit": "×10⁻⁶ cm/s"}, {"measurement": "Efflux", "setting": "MPR1-MDCK", "result": 3.1}, {"measurement": "Brain Penetration Classification", "setting": "MPR1-MDCK", "result": "Low (A-B Papp > 3.0 and Efflux Ratio > 10: Low)"}]}
{"smiles": "FC(F)(F)c1ccc2c(c1)N(CCCC1CCNCC1)c1ccccc1S2", "note": "[ICI-00824]", "values": [{"measurement": "% Recovery A-B", "setting": "MPR1-MDCK", "result": 11, "unit": "%"}, {"measurement": "Papp A-B", "setting": "MPR1-MDCK", "result": 1.77, "unit": "×10⁻⁶ cm/s"}, {"measurement": "% Recovery B-A", "setting": "MPR1-MDCK", "result": 21, "unit": "%"}, {"measurement": "Papp B-A", "setting": "MPR1-MDCK", "result": 13.8, "unit": "×10⁻⁶ cm/s"}, {"measurement": "Efflux", "setting": "MPR1-MDCK", "result": 7.8}, {"measurement": "Brain Penetration Classification", "setting": "MPR1-MDCK", "result": "Low (A-B Papp > 3.0 and Efflux Ratio > 10: Low)"}]}
{"smiles": "CNCC(=O)NCCCN1CCN(CCCN2c3ccccc3Sc3ccc(C(F)(F)F)cc32)CC1", "note": "[ICI-00823]", "values": [{"measurement": "% Recovery A-B", "setting": "MPR1-MDCK", "result": 57, "unit": "%"}, {"measurement": "Papp A-B", "setting": "MPR1-MDCK", "result": "<0.24", "unit": "×10⁻⁶ cm/s"}, {"measurement": "% Recovery B-A", "setting": "MPR1-MDCK", "result": 46, "unit": "%"}, {"measurement": "Papp B-A", "setting": "MPR1-MDCK", "result": 19.4, "unit": "×10⁻⁶ cm/s"}, {"measurement": "Efflux", "setting": "MPR1-MDCK", "result": ">80"}, {"measurement": "Brain Penetration Classification", "setting": "MPR1-MDCK", "result": "Low (A-B Papp > 3.0 and Efflux Ratio > 10: Low)"}]}
{"smiles": "CN(C)CCCN1CCC(CCCN2c3ccccc3Sc3ccc(C(F)(F)F)cc32)CC1", "note": "[ICI-01505]", "values": [{"measurement": "% Recovery A-B", "setting": "MPR1-MDCK", "result": 3, "unit": "%"}, {"measurement": "Papp A-B", "setting": "MPR1-MDCK", "result": "<0.36", "unit": "×10⁻⁶ cm/s"}, {"measurement": "% Recovery B-A", "setting": "MPR1-MDCK", "result": 26, "unit": "%"}, {"measurement": "Papp B-A", "setting": "MPR1-MDCK", "result": 0.64, "unit": "×10⁻⁶ cm/s"}, {"measurement": "Efflux", "setting": "MPR1-MDCK", "result": ">1.8"}, {"measurement": "Brain Penetration Classification", "setting": "MPR1-MDCK", "result": "Low (A-B Papp > 3.0 and Efflux Ratio > 10: Low)"}]}
{"smiles": "FC(F)(F)c1ccc2c(c1)N(CCCCN1CCNCC1)c1ccccc1S2", "note": "[ICI-00890]", "values": [{"measurement": "% Recovery A-B", "setting": "MPR1-MDCK", "result": 15, "unit": "%"}, {"measurement": "Papp A-B", "setting": "MPR1-MDCK", "result": 0.75, "unit": "×10⁻⁶ cm/s"}, {"measurement": "% Recovery B-A", "setting": "MPR1-MDCK", "result": 29, "unit": "%"}, {"measurement": "Papp B-A", "setting": "MPR1-MDCK", "result": 8.6, "unit": "×10⁻⁶ cm/s"}, {"measurement": "Efflux", "setting": "MPR1-MDCK", "result": 11}, {"measurement": "Brain Penetration Classification", "setting": "MPR1-MDCK", "result": "Low (A-B Papp > 3.0 and Efflux Ratio > 10: Low)"}]}
{"smiles": "CC(C)NCC(O)c1ccc(O)c(O)c1", "note": "(stereo not drawn) [isoproterenol, reference compound]", "values": [{"measurement": "relaxation of maximally contracted airway smooth muscle", "setting": "human small airway; in the presence of 30 μM CCh, isoproterenol 10 μM", "result": "comparable degree of relaxation"}]}
{"smiles": "C[C@@H]1C[C@H]2[C@@H]3CCC4=CC(=O)C=C[C@]4(C)[C@@]3(F)[C@@H](O)C[C@]2(C)[C@@]1(O)C(=O)CO", "note": "[Dexamethasone, reference compound]", "values": [{"measurement": "airway contraction to IgE/anti-IgE (passive sensitization, mast cell degranulation)", "setting": "human small airway; ICI-735 10 μM, dexamethasone 1 μM, pre-incubated 2 hours", "result": "no effect"}]}
{"smiles": "CNCC(=O)NCCN1CCC(CCCN2c3ccccc3Sc3ccc(C(F)(F)F)cc32)CC1", "note": "[ICI-00849]", "values": [{"measurement": "% Recovery A-B", "setting": "MPR1-MDCK", "result": 11, "unit": "%"}, {"measurement": "Papp A-B", "setting": "MPR1-MDCK", "result": "<1", "unit": "×10⁻⁶ cm/s"}, {"measurement": "% Recovery B-A", "setting": "MPR1-MDCK", "result": 26, "unit": "%"}, {"measurement": "Papp B-A", "setting": "MPR1-MDCK", "result": 5.1, "unit": "×10⁻⁶ cm/s"}, {"measurement": "Efflux", "setting": "MPR1-MDCK", "result": ">5.1"}, {"measurement": "Brain Penetration Classification", "setting": "MPR1-MDCK", "result": "Low (A-B Papp > 3.0 and Efflux Ratio > 10: Low)"}, {"measurement": "ability to inhibit proliferation of RPMI cells", "setting": "RPMI 8226", "result": "able to inhibit"}]}
